In ChEMBL document CHEMBL1152310, “A Dimeric sesquiterpenoid from a Malaysian Meiogyne as a new inhibitor of Bcl-xL/BakBH3 domain peptide interaction” (J Nat Prod, 2009):

Test system: KB
Experiment: Cytotoxicity against human KB cells
Type: functional, cell-based

CC(C)=CCC[C@@H](C)[C@H]1C=C[C@@]2(C(=O)O)[C@H](CC(C)=C[C@@H]2/C=C(\C)C2CCC(C(=O)O)CC2)C1 (stereo partly specified) [MEIOGYNIN A]
IC50: 4 µM
